The results in this text go back to publication doi:10.1101/2025.01.30.635804, “Emergence of specific binding and catalysis from a designed generalist binding protein” (bioRxiv, 2025).

One experiment has as its system FABLED2. The experiment can be described thus: Fluorescence titration of design FABLED2 into Cou485. The note with it: binding to FABLED2.
Experiment [1] deals with FABLE. The experiment can be described thus: Fluorescence enhancement of coumarins on binding FABLE. The procedure: protein coeluting with the coumarin at the same time. Incubation of 1.5 µM Cou485 and Cou481
The next experiment has as its target five FABLE Designs. Briefly: Cou485 fluorescence and binding with the five designed FABLE proteins (stated collectively). The note with it: all five designed proteins.
The subject of the next experiment is FABLED4. Briefly: Fluorescence titration of design FABLED4 into Cou485. The note with it: binding to FABLED4.
Another experiment concerns FABLED3. Briefly: Fluorescence titration of design FABLED3 into Cou485. Particulars: binding to FABLED3.
A further experiment concerns FABLED5. The experiment can be described thus: Fluorescence titration of design FABLED5 into Cou485. The note with it: binding to FABLED5.
In experiment [2] the target is FABLE. Briefly: Fluorescence titration of FABLE into coumarin fluorophores (single-site model, global fit).
Protocol: Left column: Fluorescence of
(§1) Cou485 at two fixed concentrations of 3 μM and 6 μM were measured in the presence of increasing
(§2) amounts of each protein. The dissociation constant was obtained by globally fitting a single-site
(§3) binding model to data, as described at Supplementary Methods. The error bars represent standard
(§4) deviations of three independent measurements.
Determining binding constants
(§5) We used fluorescence titration experiments to determine the binding dissociation constants of
(§6) FABLE for Cou485, Cou481, and Cou540a with BioTek Synergy Neo2 Reader.
(§7) The excitation and emission wavelength with the largest shift upon FABLE interaction was used
(§8) to quantify the bound ligand, which is 395 nm (excitation) and 470 nm (emission) for Cou485,
(§9) 410 nm (excitation) and 470 nm (emission) for Cou481, 440 nm (excitation) and 510 nm (emission)
(§10) for Cou540a. For each ligand, FABLE in PBS was serially diluted while fixing the concentration
(§11) of ligand at indicated values. Global fitting with 2 fixed ligand concentrations was used to fit KD
(§12) using GraphPad Prism. bfree was obtained by measuring the fluorescence of the ligand in PBS after
(§13) • Ligandtotal: total concentration of ligand
• Ligandfree: free ligand
• Ligandbound: ligand binding to protein
• Ligandfree = ligandtotal- ligandbound
(§14) • bfree = brightness (fluorescence) of free ligand per μM
(§15) • bbound = brightness (fluorescence) of bound ligand per μM
• Proteintotal: total protein concentration
• N: binding stoichiometry
• KD: binding constant of protein-ligand interation
In the next experiment the target is ABLE. Briefly: Cou485 fluorescence at varying concentrations of ABLE (control). The experiment is classed as binding. The source says:
The indicated FABLEs or ABLE (control)
Supplementary Figure 6 ç : Fitting Cou485 fluorescence at varying concentrations of ABLE
Unlike the quadratic binding curves observed with varying amounts
of FABLEs, the fluorescence of Cou485 increased linearly with increasing concentrations of […]

Protocol for FABLED2: Left column: Fluorescence of
as §1, §2, §3, §4
Determining binding constants
as §5, §6, §7, §8, §9, §10, §11, §12
(§16) 𝐹𝑙𝑢𝑜𝑟𝑒𝑠𝑐𝑒𝑛𝑐𝑒 = 𝑏!"#$%[𝐿𝑖𝑔𝑎𝑛𝑑!"#$%] + 𝑏&’(([𝐿𝑖𝑔𝑎𝑛𝑑&’((]
as §13
• Ligandfree: free ligand
(§17) • Ligandbound: ligand binding to protein […]
as §14, §15
Protocol for FABLED3: Left column: Fluorescence of
as §1, §2, §3, §4
Determining binding constants
as §5, §6, §7, §8, §9, §10, §11, §12, §16, §13
• Ligandfree: free ligand
as §17, §14, §15
Protocol for FABLED4: Left column: Fluorescence of
as §1, §2, §3, §4
Determining binding constants
as §5, §6, §7, §8, §9, §10, §11, §12, §16, §13
• Ligandfree: free ligand
as §17, §14, §15
Protocol for FABLED5: Left column: Fluorescence of
as §1, §2, §3, §4
Determining binding constants
as §5, §6, §7, §8, §9, §10, §11, §12, §16, §13
• Ligandfree: free ligand
as §17, §14, §15
Protocol for five FABLE Designs: as §1, §2, §3, §4
Determining binding constants
as §5, §6, §7, §8, §9, §10, §11, §12, §16, §13
• Ligandfree: free ligand
as §17, §14, §15

The term Kd denotes the constant that tells how readily two partners part at equilibrium. Take `CN(C)c1ccc2c(C(F)(F)F)cc(=O)oc2c1` [Cou485, 7-(dimethylamino)-4-(trifluormethyl)-coumarin]: the “Ligand Efficiency” value in the experiment on FABLED2 was 0.344 kcal/(mol • heavy atom count); in the experiment with FABLED4 it was 0.309 kcal/(mol • heavy atom count); in the experiment with FABLED3, 0.334 kcal/(mol • heavy atom count); with FABLED5 it was 0.317 kcal/(mol • heavy atom count); in the experiment with FABLE [2] (binding to FABLED1 (= FABLE)) it was 0.345 kcal/(mol • heavy atom count). Further, the ΔG is listed as -6.19 kcal/mol in the experiment with FABLED2; -5.56 kcal/mol in the experiment on FABLED4; -6.02 kcal/mol in the experiment on FABLED3; -5.70 kcal/mol with FABLED5; -6.21 kcal/mol in the experiment on FABLE [2] (binding to FABLED1 (= FABLE)). Besides, in the experiment on FABLE [1] (1.5 µM fluorophore with 40 µM FABLE), the “increase of fluorescence intensity at 470 nm” value is reported as 48 fold. In the experiment with FABLE [1] (at saturating concentrations of FABLE), the maximal fluorescence enhancement came to 48 fold. In addition, the Kd on five FABLE Designs was below 100 µM; at FABLE [2] (FABLE titrated into two fixed fluorophore concentrations, PBS, global single-site fit), 27.8 ± 1 µM; at ABLE (3 and 6 µM Cou485, fit of fluorescence vs ABLE concentration, linear increase), at least 500 µM. Besides, the binding curve entry in the experiment with ABLE (starting ABLE protein, non-saturable curve) was “very weak binding”.
